# Assay results reported in ChEMBL document CHEMBL4145686, “Discovery of a Potent and Selective Steroidal Glucocorticoid Receptor Antagonist (ORIC-101)” (J Med Chem, 2018).
# Tests used:
# [1] = target: T1, Glucocorticoid receptor (Sus scrofa) (UniProt Q9N1U3); assay: (§1) Antagonist activity at GR in mini pig PBMC assessed as reduction in dexamethasone-induced GILZ gene expression incubated for 24 hrs by RT-qPCR method; type: cell-based
# T1 sequence (whole entry): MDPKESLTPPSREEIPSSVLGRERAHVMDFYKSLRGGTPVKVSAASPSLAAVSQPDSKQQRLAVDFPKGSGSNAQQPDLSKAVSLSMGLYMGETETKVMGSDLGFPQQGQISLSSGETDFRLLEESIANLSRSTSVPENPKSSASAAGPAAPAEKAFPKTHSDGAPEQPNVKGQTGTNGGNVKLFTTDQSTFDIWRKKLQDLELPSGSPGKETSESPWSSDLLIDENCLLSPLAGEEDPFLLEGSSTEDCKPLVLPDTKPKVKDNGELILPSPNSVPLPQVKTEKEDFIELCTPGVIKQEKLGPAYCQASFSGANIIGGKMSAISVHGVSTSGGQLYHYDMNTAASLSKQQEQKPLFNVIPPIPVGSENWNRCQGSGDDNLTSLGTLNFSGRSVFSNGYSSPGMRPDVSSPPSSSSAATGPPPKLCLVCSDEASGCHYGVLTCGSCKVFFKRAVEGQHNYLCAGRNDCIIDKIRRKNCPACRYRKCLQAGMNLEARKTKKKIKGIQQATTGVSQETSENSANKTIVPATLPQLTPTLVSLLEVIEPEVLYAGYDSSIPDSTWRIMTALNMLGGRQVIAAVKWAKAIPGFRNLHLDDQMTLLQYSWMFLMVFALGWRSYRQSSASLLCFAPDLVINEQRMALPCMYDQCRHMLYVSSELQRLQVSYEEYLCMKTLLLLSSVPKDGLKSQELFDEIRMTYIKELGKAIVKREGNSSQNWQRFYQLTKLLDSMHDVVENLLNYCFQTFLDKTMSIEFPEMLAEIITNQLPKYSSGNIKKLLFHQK
# Glucocorticoid receptor = target: T2, Glucocorticoid receptor (Sus scrofa, UniProt Q9N1U3); assay: as §1; type: cell-based
# T2 sequence (Q9N1U3 whole entry): T1 sequence (whole entry)
smiles,measurement,setting,value
CC(C)N(C)c1ccc([C@H]2C[C@@]3(C)[C@@H](CC[C@@]3(O)C#CC(C)(C)C)[C@@H]3CCC4=CC(=O)CC[C@@H]4[C@H]32)cc1,inhibition,[1],Dose-dependent effect
same,IC50,Glucocorticoid receptor,0.181 µM
